# Assays:
# P. falciparum Dd2 [1] = experiment: Rate of killing assay; assay type: cell-based; conditions: 10×EC50, 12-hour exposure then wash off
# Procedure: Asynchronous P. falciparum Dd2 cultures were plated at 1% parasitemia, 4% hematocrit into a 24-well plate, incubated at 37° C. in 5% CO2. Wells were treated with 10×EC50 of compound for 12, 24, or 48 hours before the compound was removed. Every 24 hours thereafter for 4 days total, culture samples were washed in 0.5% BSA and stained with 1×SYBR Green I and 60 μM MitoTracker Deep Red FM for 20 minutes at 37° C. After another wash in 0.5% BSA, samples were resuspended in PBS and analyzed via flow cytometry with a CytoFLEX S™, with 100,000 events recorded per sample. For gating, the following controls were used: uninfected RBCs, untreated culture, DHA-treated culture, and untreated culture without MitoTracker stain. Viable parasite percentage was determined by finding the fraction of SYBR Green/MitoTracker double positive cells from the total events. Analysis was performed with FlowJo software Version 10.
# Asynchronous cultures of P. falciparum Dd2 parasites were treated with 10×EC50 of the indicated compound for 12 hours prior to compound wash off. Flow cytometry with SYBR Green I (nuclear dye) and Mitotracker Deep Red FM (mitochondria staining) was done after compound wash-off every 24 hours after for […] (100,000 events/sample) to track parasitemia (data from 3 biological replicates±SEM).
# P. falciparum Dd2 [2] = experiment: 72 h SYBR Green I assay (Dd2 Proliferation Assay); assay type: cell-based; conditions: Plasmodium falciparum, DD2; SYBR Green I assay; Table 4; read-out: PfDd2 EC50 (nM) ± SD
# Procedure: Several analogs were synthesized based on the structure of TL5-135 for further study. […] For the data in Table 1, compounds were subjected to in vitro biochemical kinase assays done using recombinant human ephrin type-A receptor 2 (EPHA2) (expressed in insect cells) in a Z′-LYTE® FRET-based kinase assay. P. falciparum Dd2 EC50 was determined using the standard 72 hour SYBR Green I assay (Dd2 Proliferation Assay) as known in the art. […] The structures of compoundsTL5-134, TL5-139, and TL5-145 are shown below.
# In vitro biochemical kinase assays were done using recombinant human EPHA2 (expressed in insect cells) in a Z′-LYTE® FRET-based kinase assay. P. falciparum Dd2 EC50 was determined using the standard 72 h SYBR Green I assay.
# Asynchronous blood stage P. falciparum Dd2 cultures were plated at 1% parasitemia and 1% hematocrit in a 96-well plate and incubated with serial dilutions of compound for 72 hours at 37° C. in 5% CO2. DMSO concentrations were kept at a sub-lethal percentage (<0.2%). Five micromolar chloroquine was used as a negative parasite growth control. Plates were then frozen at −80° C. and thawed, and 100 μL SYBR Green I-containing lysis buffer (20 mM Tris-HCl, 5 mM EDTA, 0.8% Triton X-100, 0.08% saponin, and 0.0001% SYBR Green I) was added to the wells. After incubation for 45 minutes at room temperature protected from light, fluorescence emission was read with a multimode microplate reader, at 485 nm excitation and 530 nm emission. Results were normalized using untreated and chloroquine-treated controls, and EC50 was determined with CDD Vault.
# (§1) To establish the utility of kinase inhibitor compounds synthesized in the Gray laboratory as a source of novel antimalarial activities, the libraries (containing 1,100 compounds) were screened using the well-established SYBR Green I-based fluorescence assay as known in the art. This screen yielded 34 compounds with EC50<500 nM in the CQ^R Dd2 strain. These hits were subjected to counter-screening against human HepG2 cells using CellTiter 96® AQueous (Promega™) MTS-based cell proliferation assay to identify asexual and liver stage antiplasmodial hits.
# (§2) P. falciparum Dd2 EC50 was determined using SYBR Green I assay. For the selectivity index ([…]) cytotoxicity was determined using CellTiter 96® AQueous MTS. The liver stage assay was performed using P. berghei luciferase expressing parasites. All assays were performed with technical quadruplicates and 3 biological replicates. Assays have a Z′ factor >0.7.
# in vitro = in vitro ADME; conditions: mouse liver microsomes; read-out: t1/2 in mouse liver microsomes
# HepG2 human liver cell = experiment: CellTiter 96 AQueous MTS cytotoxicity counter-screen (selectivity index); assay type: cell-based
# Procedure: as §1, §2
compound,measurement,setting,value
CCN1CCN(Cc2ccc(NC(=O)c3cc(Cl)cc(NC(=O)c4cncc(-c5cccs5)c4)c3)cc2C(F)(F)F)CC1 [TL5-135],Killing profile,P. falciparum Dd2 [1],pronounced irreversible killing
same,Killing profile,P. falciparum Dd2 [1]; listed as TL-135,exhibited a killing effect
same,EC50,P. falciparum Dd2 [2],80 ± 8 nM
same,half-life,in vitro,1.32 h
same,Selectivity Index (SI),HepG2 human liver cell,116

# Reference: patent publication US20250195508A1, “COMPOUNDS AND COMPOSITIONS FOR ANITMALARIAL THERAPEUTIC AND PROPHYLACTIC USE” (UNIVERSITY OF CENTRAL FLORIDA RESEARCH FOUNDATION, INC., priority 2022, published 2025)
